Results taken from BindingDB's records for doi:10.1021/jm3016848 (Ikerchem, 2013).

Assay: Inhibition of LFA-1/ICAM-1 interaction in mouse Lim51b cells assessed as PMA-induced adhesion to ICAM-1 expressing HSE cells measured per 10^5 cells after 30 mins by fluorometric microplate reader analysis

CC[C@H](C)[C@H](OCc1ccccc1)[C@H]1[C@H]([N+](=O)[O-])[C@H](c2ccccc2)N[C@]1(C)C(=O)NCCC(=O)O
IC50: 27.6 µM
